Laboratory results as given in patent publication US11110082B2, “Tyrosine kinase inhibitors” (Rigel Pharmaceuticals, Inc., priority 2016, dated 2021).

The compounds below were run against T1, MerTK (Homo sapiens, UniProt Q12866) (assay: PAKT HTRF-HUVEC assay (pAkt Ser473 HTRF after anti-human MerTK-XL stimulation)). Details: HUVEC cells, 1 hour compound, stimulated with anti-human MerTK-XL 1 ug/mL for 10 minutes, read-out: inhibition of MerTK.
T1 construct: Seed HUVECs (10K cells/well) in EBM-2 complete media; host or cells: HUVEC (primary human umbilical vein endothelial cells)
T1 sequence (Q12866 21-999): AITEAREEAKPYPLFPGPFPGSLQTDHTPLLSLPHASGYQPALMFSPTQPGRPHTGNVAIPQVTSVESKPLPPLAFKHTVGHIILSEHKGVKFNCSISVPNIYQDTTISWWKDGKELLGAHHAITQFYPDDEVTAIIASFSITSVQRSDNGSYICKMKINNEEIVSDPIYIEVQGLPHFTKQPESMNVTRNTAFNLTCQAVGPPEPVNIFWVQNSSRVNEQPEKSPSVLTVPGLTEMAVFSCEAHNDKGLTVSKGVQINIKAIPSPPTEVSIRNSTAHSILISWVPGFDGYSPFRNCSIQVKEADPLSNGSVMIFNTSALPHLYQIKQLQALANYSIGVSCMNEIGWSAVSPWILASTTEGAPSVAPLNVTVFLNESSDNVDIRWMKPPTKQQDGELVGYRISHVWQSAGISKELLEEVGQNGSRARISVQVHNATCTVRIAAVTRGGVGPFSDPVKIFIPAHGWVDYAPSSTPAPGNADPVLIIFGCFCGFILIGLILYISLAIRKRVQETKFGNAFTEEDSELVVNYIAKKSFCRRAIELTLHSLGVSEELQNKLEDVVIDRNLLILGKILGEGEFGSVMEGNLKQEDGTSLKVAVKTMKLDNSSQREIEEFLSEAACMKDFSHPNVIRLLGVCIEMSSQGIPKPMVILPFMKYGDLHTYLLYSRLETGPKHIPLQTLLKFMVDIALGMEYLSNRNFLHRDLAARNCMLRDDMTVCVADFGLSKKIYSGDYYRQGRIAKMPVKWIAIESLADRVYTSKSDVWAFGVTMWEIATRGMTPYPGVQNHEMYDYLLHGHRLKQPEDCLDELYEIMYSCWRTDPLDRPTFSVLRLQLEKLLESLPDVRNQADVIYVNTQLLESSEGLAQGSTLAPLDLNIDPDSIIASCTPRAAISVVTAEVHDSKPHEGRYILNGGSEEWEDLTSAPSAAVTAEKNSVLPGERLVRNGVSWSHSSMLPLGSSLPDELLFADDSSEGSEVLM
Type: cell-based
Protocol: Example 4: PAKT HTRF-HUVEC Assay Phospho Akt (Ser473) Assay kit-10,000 tests (Cisbio US, 64[…]) HUVEC cells (Lonza, CC-2519) Anti-human MerTK antibody (Clone 125518) (R&D Systems, MAB8912) Method Seed HUVECs (10K cells/well) in EBM-2 complete media (EBM-2 basal medium plus EGM-2 BulletKit supplements) overnight at 37° C., 5% CO2 in Costar 96-well white clear-bottom plates. Remove culture media and starve cells for 3-4 hours in 50 μL/well EBM-2 basal medium. Perform serial dilution of compounds in DMSO from 2.5 mM in 4-fold dilutions, and then dilute 1:125 in EBM-2 basal media. Mix 50 μL/well 2x compounds with 50 μL/well HUVECs in duplicate in Costar 96-well white clear-bottom plates. Incubate plates for 1 hour at 37° C., 5% CO2. Cross-link anti-human MerTK antibody to Biotin-SP-conjugated anti-mouse IgG antibody (1:1) to give final concentrations of 5 ug/mL of anti-human MerTK-XL. Stimulate HUVECs with 25 μL/well 5x anti-human MerTK-XL to give final concentrations of 1 ug/mL for 10 minutes at 37° C., 5% CO2. Completely remove media and lyse HUVECs with 40 uL/WELL per well of Cisbio HTRF 1× lysis buffer. Performed pAkt(Ser473) HTRF assay in ProxiPlate-384 Plus, white 384-shallow well microplate according to the vendor protocol and read plates with a SpectralMax Paradigm plate reader. Enter the HTRF values into Athena (Rigel) for curve fitting, EC50 calculation, and database storage.

Row | Compound | EC50 [µM]
1 | O=c1c2cc(CN3CCSCC3)ccc2c2cnc(NCC3CC3)nc2n1[C@H]1CC[C@H](O)CC1 [Compound 53, trans-3-((Cyclopropylmethyl)amino)-5-(4-hydroxycyclohexyl)-8-(thiomorpholinomethyl)pyrimido [4,5-c]isoquinolin-6(5H)-one] | 0.0363
2 | O=c1c2cc(CN3CCNCC3)ccc2c2cnc(NCC3CC3)nc2n1[C@H]1CC[C@H](O)CC1 [Compound 54, trans-3-((Cyclopropylmethyl)amino)-5-(4-hydroxycyclohexyl)-8-(piperazin-1-ylmethyl)pyrimido[4,5-c]isoquinolin-6(5H)-one] | 0.309
3 | CC(C)CNc1ncc2c3ccc(CN4CCN(C)CC4)cc3c(=O)n([C@H]3CC[C@H](O)CC3)c2n1 [Compound 56, trans-5-(4-Hydroxycyclohexyl)-3-(isobutylamino)-8-((4-methylpiperazin-1-yl)methyl)pyrimido[4,5-c]isoquinolin-6(5H)-one] | 0.0512
4 | O=c1c2cc(CN3CCN4CCC3CC4)ccc2c2cnc(NCC3CC3)nc2n1[C@H]1CC[C@H](O)CC1 [Compound 58, trans-8-((1,4-Diazabicyclo[3.2.2]nonan-4-yl)methyl)-3-((cyclopropylmethyl)amino)-5-(4-hydroxycyclohexyl)pyrimido [4,5-c]isoquinolin-6(5H)-one] | 0.115
5 | CN1CCN(Cc2ccc3c(c2)c(=O)n([C@H]2CC[C@H](OC(N)=O)CC2)c2nc(NCC4CC4)ncc32)CC1 [Compound 59, trans-4-(3-((Cyclopropylmethyl)amino)-8-((4-methylpiperazin-1-yl)methyl)-6-oxopyrimido[4,5-c]isoquinolin-5(6H)-yl)cyclohexyl carbamate] | 0.292
6 | CC(C)(C)N1CCN(Cc2ccc3c(c2)c(=O)n([C@H]2CC[C@H](O)CC2)c2nc(NCC4CC4)ncc32)CC1 [Compound 60, trans-8-((4-(tert-butyl)piperazin-1-yl)methyl)-3-((cyclopropylmethyl)amino)-5-(4-hydroxycyclohexyl)pyrimido [4,5-c]isoquinolin-6(5H)-one] | 0.0042
7 | CCCCNc1ncc2c3ccc(N4CCN(C)CC4)cc3c(=O)n([C@H]3CC[C@H](O)CC3)c2n1 [Compound 61, trans-3-(Butylamino)-5-(4-hydroxycyclohexyl)-8-(4-methylpiperazin-1-yl)pyrimido[4,5-c]isoquinolin-6(5H)-one] | 0.0231
8 | CCCCNc1ncc2c3ccc(N4CCOCC4)cc3c(=O)n([C@H]3CC[C@H](O)CC3)c2n1 [Compound 62, trans-3-(Butylamino)-5-(4-hydroxycyclohexyl)-8-morpholinopyrimido[4,5-c]isoquinolin-6(5H)-one] | 0.0952
9 | CCCCNc1ncc2c3ccc(N4CCN(C)CC4)cc3c(=O)n([C@H]3CC[C@@H](O)CC3)c2n1 [Compound 63, cis-3-(Butylamino)-5-(4-hydroxycyclohexyl)-8-(4-methylpiperazin-1-yl)pyrimido[4,5-c]isoquinolin-6(5H)-one] | 0.139
10 | CCCCNc1ncc2c3ccc(N4CCN(C)CC4)cc3c(=O)n(CC3CCC(N)CC3)c2n1 (stereo not shown) [Compound 65, 5-((4-Aminocyclohexyl)methyl)-3-(butylamino)-8-(4-methylpiperazin-1-yl)pyrimido[4,5-c]isoquinolin-6(5H)-one] | 0.0783
11 | CN1CC2(C1)CN(c1ccc3c(c1)c(=O)n([C@H]1CC[C@H](O)CC1)c1nc(NC4CC(F)(F)C4)ncc31)C2 [Compound 66, trans-3-((3,3-Difluorocyclobutyl)amino)-5-(4-hydroxycyclohexyl)-8-(6-methyl-2,6-diazaspiro[3.3]heptan-2-yl)pyrimido[4,5-c]isoquinolin-6(5H)-one] | 0.298
12 | O=c1c2cc(N3CC4(COC4)C3)ccc2c2cnc(NC3CC(F)(F)C3)nc2n1[C@H]1CC[C@H](O)CC1 [Compound 67, trans-3-((3,3-difluorocyclobutyl)amino)-5-(4-hydroxycyclohexyl)-8-(2-oxa-6-azaspiro[3.3]heptan-6-yl)pyrimido[4,5-c]isoquinolin-6(5H)-one] | 8.03
13 | CCCCNc1ncc2c3ccc(N4CC5(COC5)C4)cc3c(=O)n([C@H]3CC[C@H](O)CC3)c2n1 [Compound 68, trans-3-(Butylamino)-5-(4-hydroxycyclohexyl)-8-(2-oxa-6-azaspiro[3.3]heptan-6-yl)pyrimido[4,5-c]isoquinolin-6(5H)-one] | 0.0784
14 | CCCCNc1ncc2c3ccc(N4CCN(C(C)C)CC4)cc3c(=O)n([C@H]3CC[C@H](O)CC3)c2n1 [Compound 69, trans-3-(Butylamino)-5-(4-hydroxycyclohexyl)-8-(4-isopropylpiperazin-1-yl)pyrimido[4,5-c]isoquinolin-6(5H)-one] | 0.0204
15 | CCCCNc1ncc2c3ccc(N4CCN(C(C)C)CC4)cc3c(=O)n(C3CCC(=O)CC3)c2n1 [Compound 70, 3-(Butylamino)-8-(4-isopropylpiperazin-1-yl)-5-(4-oxocyclohexyl)pyrimido[4,5-c]isoquinolin-6(5H)-one] | 0.184
16 | CCCCNc1ncc2c3ccc(N4CCC(N5CCCC5)CC4)cc3c(=O)n([C@H]3CC[C@H](O)CC3)c2n1 [Compound 71, trans-3-(Butylamino)-5-(4-hydroxycyclohexyl)-8-(4-(pyrrolidin-1-yl)piperidin-1-yl)pyrimido[4,5-c]isoquinolin-6(5H)-one] | 0.0334
17 | CCCCNc1ncc2c3ccc(N4CCC(N5CCCC5)CC4)cc3c(=O)n(C3CCC(=O)CC3)c2n1 [Compound 72, 3-(Butylamino)-5-(4-oxocyclohexyl)-8-(4-(pyrrolidin-1-yl)piperidin-1-yl)pyrimido[4,5-c]isoquinolin-6(5H)-one] | 0.22
18 | CCCCNc1ncc2c3ccc(N4CCN5CCC[C@H]5C4)cc3c(=O)n([C@H]3CC[C@H](O)CC3)c2n1 [Compound 73, trans-3-(Butylamino)-8-((S)-hexahydropyrrolo[1,2-a]pyrazin-2(1H)-yl)-5-((1r,4S)-4-hydroxycyclohexyl)pyrimido [4,5-c]isoquinolin-6(5H)-one] | 0.021
19 | CN1CC2(C1)CN(c1ccc3c(c1)c(=O)n([C@H]1CC[C@H](O)CC1)c1nc(NC4CC(F)C4)ncc31)C2 (stereo partly drawn) [Compound 74, trans-3-((3-Fluorocyclobutyl)amino)-5-(4-hydroxycyclohexyl)-8-(6-methyl-2,6-diazaspiro[3.3]heptan-2-yl)pyrimido[4,5-c]isoquinolin-6(5H)-one] | 0.218
20 | O=c1c2cc(N3CC4(COC4)C3)ccc2c2cnc(NC3CC(F)C3)nc2n1[C@H]1CC[C@H](O)CC1 (stereo partly drawn) [Compound 75, trans-3-((3-Fluorocyclobutyl)amino)-5-(4-hydroxycyclohexyl)-8-(2-oxa-6-azaspiro[3.3]heptan-6-yl)pyrimido[4,5-c]isoquinolin-6(5H)-one] | 1.08
21 | CCCCNc1ncc2c3ccc(N4CCN5CCC[C@@H]5C4)cc3c(=O)n([C@H]3CC[C@H](O)CC3)c2n1 [Compound 76, trans-3-(Butylamino)-8-((R)-hexahydropyrrolo[1,2-a]pyrazin-2(1H)-yl)-5-(4-hydroxycyclohexyl)pyrimido [4,5-c]isoquinolin-6(5H)-one] | 0.0115
22 | CCCCNc1ncc2c3ccc(N4CCN(C5COC5)CC4)cc3c(=O)n([C@H]3CC[C@H](O)CC3)c2n1 [Compound 77, trans-3-(Butylamino)-5-(4-hydroxycyclohexyl)-8-(4-(oxetan-3-yl)piperazin-1-yl)pyrimido[4,5-c]isoquinolin-6(5H)-one] | 0.0219
